In US8703964B2, “Bendamustine cyclopolysaccharide compositions” (Supratek Pharma Inc., priority 2009, dated 2014):

Assays:
[1] = Pharmacokinetics of bendamustine dosed to rats, composition with SBECD and PI2080 (Example 12); type: in vivo, Female Sprague-Dawley rats; details: i.v. 10 mg/kg
Protocol: Control: 2.5 mg/mL bendamustine hydrochloride, 4.25 mg/mL of mannitol in 0.9% NaCl; dose of 10 mg/kg
Inventive Composition: 2.5 mg/mL bendamustine hydrochloride, 40% w/w sodium sulfobutyl ether β-cyclodextrin, 1% PI2080, 4.3 mg/g mannitol in water (prepared according to the procedure set forth in Example 9); dose of 10 mg/kg.
Female Sprague-Dawley rats (250-350 g). The animals were kept three per cage with an air filter cover under light (12 h light/dark cycle, light on at 06 h00) and controlled temperature 22° C.+/−1° C. All manipulations with the animals were performed under a sterilized laminar hood. The animals had ad libitum access to Purina mouse chow and water. The animals were fasted overnight and anesthetized, before dosing. Dosing and Sampling: Inventive bendamustine composition and control were administered intravenously to rats in tail vein. Blood samples were collected after time intervals of 5, 15, 30, 45 min, 1, 1.5, 2 and 3 hrs post-injection, The rats were anesthetised by general inhalation of isoflurane. The blood samples were collected from the jugular vein with heparinized tube and kept on ice. The blood was immediately centrifuged, and plasma was separated. The plasma samples were immediately extracted. Sample Extraction and Analysis: The plasma samples 0.100 mL were transferred to plastic tubes. The samples were extracted with 0.400 mL of 100 mM HCl in acetonitrile while being shaken vigorously for 30 seconds. The samples were centrifuged at 10000 RPM for 5 minutes. The supernatant was separated. The samples were frozen in dry ice and kept at −80° C. until HPLC analysis. The aliquots of 20 microliters were injected into HPLC for analysis. The HPLC Conditions: C18 reversed phase column 50×4.6 mm, Symmetry/Shield 3.5 micrometer Column temperature 30° C. Flow rate 1.5 mL/min Injection volume 20 microliters Fluorescence detection at wavelengths: excitation 327 nm, emission 420 nm Mobile phase: Buffer A: 5% acetonitrile 0.1% TFA Buffer B: 90% acetonitrile 0.1% TFA Run time: 10 min The improved pharmacokinetic profiles of Bendamustine for tested inventive composition versus the control is shown in Table 2 below.

[2] = system: Human breast carcinoma MDA-MB 231 s.c. solid tumors; experiment: Human breast carcinoma MDA-MB 231 s.c. solid tumors in nude mice (Example 29); type: in vivo, balb/c nu/nu mice; details: for Tumor weight after treatment, Average (SEM): 30 mg/kg days 1, 2, 9, 10
Protocol: balb/c mice aged 5 to 6 weeks were purchased from Charles River Canada Inc. The animals were kept 5 per cage with an air filter cover under light (12 light/dark cycle, light on at 6 H00) and temperature (22° C.±1° C.)-controlled environment. All manipulations of animals were performed under a sterilized laminar hood. The animals had ad libitum access to Purina mouse chow (Pro Lab PMH 4018, Trademark of Agway, Syracuse, N.Y.) and water. These animal studies were conducted according to the “Guidelines for Care and Use of Experimental Animals”. Tumor Cell Culture: Human breast cancer cells MDA-MB 231 were cultured in the appropriated culture medium. The cells were harvested in their logarithmic growth phase for the preparation of tumor implantation. Tumor Implantation: Human tumor or myeloma cells (2.5 to 5.0×10^6 cells) were implanted subcutaneously in 0.200 mL of medium containing 30% Matrigel on the two flanks of balb/c nu/nu mice through a 1 to 2 cm long 20-gauge needle. Treatments: 2 to 3 weeks after tumor cell implantation, animals that developed s.c. solid tumors were selected and divided into several homogeneous groups (n=5 animals per group or dose) with respect to tumor size (0.5 to 0.8 cm in diameter). The treatments were performed next day. The animals were dosed with the following dosing solutions. Control: (0.9%, NaCl) Compositions:
Subcutaneous solid tumor measurements were performed on the day of first injection and at 3- to 4-day intervals thereafter. The two largest perpendicular diameters of each tumor were measured with calipers and tumor sizes were estimated using the formula: TV=L×W/2 where TV: tumor volume; L: length; W: width. The body weights of animals were also noted.
The experiment was performed employing the procedures described in Example 28, using the following compositions for treatment:
non-formulated Bendamustine, (30 mg/kg)
Bendamustine (30 mg/kg) in 20% SBECD, 1% LMWP (formulated BM)
The treatment was performed on days 1, 2, 9, and 10.

## Cn1c(CCCC(=O)O)nc2cc(N(CCCl)CCCl)ccc21 [BM, 4-[5-[bis(2-chloroethyl)amino]-1-methylbenzimidazol-2-yl]butanoic acid]
[1]; female, Sprague-Dawley, rat, plasma, iv, 0.08 h post injection, read-out: Concentration of bendamustine in rat plasma, Mean (SEM)
  concentration at 0.08 h: 6040 ng/mL
[1]; female, Sprague-Dawley, rat, plasma, iv, 0.25 h post injection, read-out: Concentration of bendamustine in rat plasma, Mean (SEM)
  concentration at 0.25 h: 2430 ng/mL
[1]; female, Sprague-Dawley, rat, plasma, iv, 0.5 h post injection, read-out: Concentration of bendamustine in rat plasma, Mean (SEM)
  concentration at 0.5 h: 520 ng/mL
[1]; female, Sprague-Dawley, rat, plasma, iv, 0.75 h post injection, read-out: Concentration of bendamustine in rat plasma, Mean (SEM)
  concentration at 0.75 h: 145 ng/mL
[1]; female, Sprague-Dawley, rat, plasma, iv, 1.5 h post injection, read-out: Concentration of bendamustine in rat plasma, Mean (SEM)
  concentration at 1.5 h: 8 ng/mL
[1]; female, Sprague-Dawley, rat, plasma, iv, 2 h post injection, read-out: Concentration of bendamustine in rat plasma, Mean (SEM)
  concentration at 2 h: 2 ng/mL
[1]; 1 h post injection
  Concentration of bendamustine in rat plasma, Mean (SEM): 48 (11) ng/mL
[1]; 3 h post injection
  Concentration of bendamustine in rat plasma, Mean (SEM): 0 (1) ng/mL
[2]; day 0
  Tumor weight after treatment, Average (SEM): 0.139 (0.013) g
[2]; day 2
  Tumor weight after treatment, Average (SEM): 0.178 (0.027) g
[2]; day 4
  Tumor weight after treatment, Average (SEM): 0.202 (0.039) g
[2]; day 6
  Tumor weight after treatment, Average (SEM): 0.259 (0.049) g
[2]; day 8
  Tumor weight after treatment, Average (SEM): 0.295 (0.054) g
[2]; day 10
  Tumor weight after treatment, Average (SEM): 0.319 (0.044) g
[2]; day 12
  Tumor weight after treatment, Average (SEM): 0.361 (0.050) g
[2]; day 14
  Tumor weight after treatment, Average (SEM): 0.417 (0.054) g
[2]; day 16
  Tumor weight after treatment, Average (SEM): 0.487 (0.067) g
[2]; 30 mg/kg, Day 1, 2, 9, 10
  Inhibition % vs control (on day 16): 38.3%
[2]; 30 mg/kg, Day 1, 2, 9, 10, right flank tumors only
  Tumor weight on day 16: 0.487 ± 0.067 g
